Test results reported in PubChem BioAssay (NCI).
Where “and” joins values, the source holds several entries; their conditions need not be identical. Equal values may be shown once.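 Dose response: 5 concentrations. Exposure: 48 h. Format: 96-well plates. Endpoint: linear interpolation; highest concentration if not reached. GI50 marks 50% less growth. The concentration for full growth arrest is given as TGI.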

Experiments:
Assay in all cases: NCI tumour cell line growth inhibition, 48 h
A549 NSCLC = tested on: A549 NSCLC
UACC-257 melanoma = tested on: UACC-257 melanoma
OVCAR-3 ovarian = tested on: OVCAR-3 ovarian
HCT-116 colon = tested on: HCT-116 colon
OVCAR-8 ovarian = tested on: OVCAR-8 ovarian
SW-620 colon = tested on: SW-620 colon
HS 578T breast = tested on: HS 578T breast
IGROV1 ovarian = tested on: IGROV1 ovarian
M14 melanoma = tested on: M14 melanoma
RPMI-8226 leukemia = tested on: RPMI-8226 leukemia

Compound | TGI (A549 NSCLC) | TGI (UACC-257 melanoma) | TGI (OVCAR-3 ovarian) | TGI (HCT-116 colon) | TGI (OVCAR-8 ovarian) | TGI (SW-620 colon) | TGI (HS 578T breast) | TGI (IGROV1 ovarian) | TGI (M14 melanoma) | TGI (RPMI-8226 leukemia) | GI50 (A549 NSCLC) | GI50 (UACC-257 melanoma) | GI50 (OVCAR-3 ovarian) | GI50 (HCT-116 colon) | GI50 (OVCAR-8 ovarian) | GI50 (SW-620 colon) | GI50 (HS 578T breast) | GI50 (IGROV1 ovarian) | GI50 (M14 melanoma) | GI50 (RPMI-8226 leukemia)
FC(F)(F)c1cccc(-c2nc3nc(Cl)c(Cl)nc3[nH]2)c1 | > 40.3 µM | > 30.9 µM | 14.9 µM | 12.1 µM | > 100 µM | > 42.3 µM | 17.8 µM | > 100 µM | 30.8 µM | 3.5 µM |  |  |  |  |  |  |  |  |  | 
CCN1C(=O)N(CC)C2C1NN=c1s/c(=C\c3ccc(Cl)cc3Cl)c(=O)n12 (configuration not stated) | > 55.5 µM | > 88.4 µM | 0.0665 µM |  | 36.6 µM | > 100 µM | > 50.5 µM | > 44.4 µM |  | 7.25 µM | 0.0369 µM | 1.05 µM | 0.0263 µM | 0.0317 µM | 0.0368 µM | 0.0439 µM | 0.0379 µM | 0.0437 µM | 0.0304 µM | 0.0391 µM
O=C(c1ccc2ccccc2c1)c1c(C(F)(F)F)n([O-])c2ccc(C(F)(F)F)cc2[n+]1=O | 3.48 µM | 3.12 µM | 2.26 µM | 1.16 µM | 2.45 µM | 1.11 µM | 3.97 µM | 0.815 µM | 2.95 µM | 2.88 µM | 1.68 µM | 1.52 µM | 0.884 µM | 0.498 µM | 0.727 µM | 0.514 µM | 1.44 µM | 0.27 µM | 1.54 µM | 0.864 µM
N#CC(C#N)=C/C=C(\Cl)c1ccc(Cl)cc1 | 39.3 µM | 30.2 µM | 17.4 µM | 3.76 µM | 31.4 µM | 9.9 µM | 26.3 µM | 32 µM | 7.38 µM | > 100 µM | 17.4 µM | 14.8 µM | 6.5 µM | 1.58 µM | 10.1 µM | 1.93 µM | 7.47 µM | 7.46 µM | 1.93 µM | 4.12 µM
CC1CC(C)CC(C)C(O)/C(C#N)=C/C=C/CC(C2CCCC2C(=O)O)OC(=O)CC(O)C(C)C1 (configuration not stated) | 0.496 µM and 0.919 µM | 0.17 µM and 0.0491 µM | 0.199 µM and 0.0879 µM | 0.7 µM and 0.145 µM | 0.472 µM and 0.344 µM | 0.725 µM and 1.34 µM | 0.223 µM and 0.0673 µM | 0.128 µM and 0.0412 µM | 0.0971 µM and 0.0576 µM | 0.0315 µM and < 0.145 µM | 0.0681 µM | 0.0359 µM | 0.0358 µM and 0.0178 µM | 0.0473 µM | 0.0495 µM | 0.0834 µM | 0.0395 µM | 0.0231 µM | 0.026 µM | 0.00486 µM
C=CCc1c(Cl)nc(Cl)nc1Cl | 5.91 µM | 1.9 µM | 0.311 µM | 1.18 µM | 1.32 µM | 0.583 µM | 4.14 µM | 1.36 µM | 0.0714 µM | > 100 µM |  |  |  |  |  |  |  |  |  | 
O=C(O)c1nc(NCc2nc3cc(Cl)ccc3o2)n[nH]1 | > 100 µM | > 100 µM | > 100 µM | > 100 µM | > 100 µM | > 100 µM | > 100 µM | > 100 µM | > 100 µM | > 100 µM | > 100 µM | > 100 µM | > 100 µM | > 100 µM | > 100 µM | > 100 µM | > 100 µM | > 100 µM | > 100 µM | > 100 µM
c1ccc(-c2nc(-c3ccccn3)nc(-c3ccccn3)n2)nc1 | > 100 µM | > 100 µM | > 100 µM | 78.6 µM | > 100 µM | > 100 µM | > 100 µM | 55.2 µM | > 100 µM | > 100 µM | 47.9 µM | 39.9 µM | 25.4 µM | 19.4 µM | 21.3 µM | 28 µM | 53.6 µM | 15.8 µM | 31.4 µM | 18.3 µM
COc1ccc(C2=Nn3c(nnc3-c3cc(Cl)cc(Cl)c3Cl)SC2)cc1 | > 37.4 µM | > 95.3 µM | 0.772 µM | > 100 µM | > 40.7 µM | > 100 µM | 13.6 µM | 3.59 µM | > 34 µM | > 100 µM | 0.631 µM | 0.362 µM | 0.173 µM | 0.393 µM | 0.862 µM | 0.381 µM | 0.376 µM | 0.339 µM | 0.349 µM | 0.627 µM
N=C1C(O)C2(I)c3ccccc3N3C(=N)C(O)C4c5ccccc5N1C4C32 (configuration not stated) | > 100 µM | > 100 µM | > 100 µM | > 100 µM | > 100 µM | > 100 µM | > 100 µM | > 100 µM | > 100 µM | > 100 µM |  |  |  |  |  |  |  |  |  | 
C1CSCCCSCCCSCCCSCCCSCCCSCCCSCCCSC1 | > 100 µM | > 100 µM | > 100 µM | > 100 µM | > 100 µM | > 100 µM | > 100 µM | > 100 µM | > 100 µM | > 100 µM |  |  |  |  |  |  |  |  |  | 
Nc1ncn([C@@H]2S[C@H](CO)[C@@H](O)[C@@H]2F)c(=O)n1 | > 100 µM | > 100 µM | > 100 µM | > 100 µM | > 100 µM | > 100 µM | > 100 µM | > 100 µM | 30.1 µM | > 100 µM | 0.512 µM | > 71.4 µM | > 74 µM | 0.265 µM | 0.409 µM | 1.38 µM | > 100 µM | 3.43 µM | 0.377 µM | 22.4 µM
c1ccc(NN(Cc2cnccn2)c2ccccc2)cc1 | > 100 µM | > 100 µM | > 100 µM | > 100 µM | > 100 µM | > 100 µM | > 100 µM | > 100 µM | > 100 µM | > 100 µM |  |  |  |  |  |  |  |  |  | 
CN(C)CCNC(=O)Cn1ccc(=O)c2cc([N+](=O)[O-])ccc21 | > 100 µM | > 100 µM | > 100 µM | > 100 µM |  | > 100 µM | > 100 µM | > 100 µM | > 100 µM | > 100 µM |  |  |  |  |  |  |  |  |  | 
O=[N+]([O-])c1ccccc1N=Nc1c(O)[nH]c2cccc(C(F)(F)F)c12 | > 100 µM | 34.5 µM | 62.2 µM | > 100 µM | > 100 µM | > 100 µM | > 100 µM | 57.7 µM | > 100 µM | > 100 µM |  |  |  |  |  |  |  |  |  | 
C[C@@H](NC(C#N)c1ccco1)c1ccccc1 (some centres not stated) | > 100 µM | > 100 µM | > 100 µM | > 100 µM | > 100 µM | > 100 µM | > 100 µM | > 100 µM | > 100 µM | > 100 µM |  |  |  |  |  |  |  |  |  | 
